Measured values as given in US9375436B2, “Androgen treatment in females” (priority 2004, dated 2016).
“And” between values parts separate entries of the source, which are not always exact repeats. Identical values can stand only once.

Tests used:
[1] = tested on: person with prematurely aging ovaries; assay: Case report: DHEA substitution in probable 17,20-desmolase deficiency (Patient B, Example 5); assay type: in vivo, human; settings: for Estradiol periovulatory: spontaneous ovulation
Procedure: In a further study, a case of probable 17, 20-desmolase deficiency, resulting in abnormally low estradiol, DHEA, androstenedione and testosterone levels, is presented in a person with a clinical history of, initially, unexplained infertility and, later, prematurely aging ovaries.
In July of 2003, the patient was started on 25 mg daily of micronized DHEA. After five weeks of treatment, DHEA, DHEA-S and androstenedione levels had normalized into mid-ranges. (Even though androstenedione is partially produced through the activity of 17,20-desmolase from 17-hydroxyprogesterone, part is also derived from DHEA through the activity of 3-beta hydroxysteroid dehydrogenase [Speroff et al., 1999a]. The normalization of androstenedione, after DHEA administration, therefore, also speaks for an underlying 17,20-desmolase defect, and not a 3-beta hydroxysteroid dehydrogenase deficiency.) In the third and fourth month, following the start of DHEA supplementation, the patient ovulated spontaneously with estradiol levels of 268 and 223 pg/ml (Table 2), respectively, measured on the day of LH surge.
On Jan. 28, 2004, and after DHEA therapy of approximately six months, a fourth IVF cycle was initiated. Their baseline FSH level in that cycle was 9.6 mIU/ml, estradiol 56 pg/ml. Stimulation took place with 300 IU of recombinant FSH (without hMG) and with an agonist flare protocol. […] A triplet pregnancy was established with heart beats. Two, out of the three fetuses lost heart beat spontaneously, and the patient delivered by cesarean section, at term, a healthy singleton infant.

[2] = tested on: women waiting to go into an IVF cycle; assay: Spontaneous conceptions in women on DHEA waiting to go into IVF; assay type: in vivo, human
Procedure: Additionally, with DHEA treatment, there may be an unexpectedly large number of spontaneous conceptions in women waiting to go into an IVF cycle. DHEA treatment includes administering a dose of between about 50 mg/day and about 100 mg/day, preferably between about 60 mg/day and about 80 mg/day, and in one study about 75 mg/day to a human. Particularly, the DHEA treatment may be administered to a premenopausal person with diminished ovarian function. DHEA may have an effect after about 4 consecutive weeks. However, DHEA has a more significant effect after about 8 weeks or about 2 months of administration, but its effect may continue to increase to about four months, and further may continue past four months of use. Specifically, DHEA treatment has a statistically significant effect after about at least 16 weeks or about at least 4 months of administration.
The DHEA treatment may be at least about 2 weeks before spontaneous conception occurs. In the population of women who are waiting to go into IVF, the spontaneous pregnancy rate is a fraction of about 1% per month. However, in the population of women who have been on DHEA treatment, there were 13 spontaneous pregnancies out of 60 women. As such, DHEA treatment increases spontaneous pregnancies in one study at least about 21 fold. […]

[3] = tested on: patients with prior clomiphene citrate failures; settings: 47 patients, 75 mg daily DHEA at least 60 days prior to inseminations; cited from earlier work
[4] = January 2004, 4th IVF cycle start, DHEA approximately six months
[5] = fourth IVF cycle after DHEA therapy of approximately six months

With C[C@]12CC[C@H](O)CC1=CC[C@@H]1[C@@H]2CC[C@]2(C)C(=O)CC[C@@H]12 [DHEA, Dehydroepiandrosterone] the Testosterone free ([1]; December 2003, on DHEA, normal (1-21)) was 2 pg/mL, the “Testosterone free and weekly bound” value ([1]; December 2003, on DHEA, normal (3-29)) was 4 ng/dL and the Estradiol baseline [1, 4] was 56 pg/mL. It also gave an FSH baseline [1, 4] of 9.6 mIU/ml, an FSH ([1]; January 2004, on DHEA, first value) of 18 mIU/ml and an Androstenedione level ([1]; July 2003 after DHEA treatment start, normal (65-270)) of 121 ng/dL. It also gave an Estradiol ([1]; November 2003, on DHEA) of 38 pg/mL, an FSH ([1]; November 2003, on DHEA) of 17 mIU/ml and an Estradiol ([1]; October 2003, on DHEA) of 44 pg/mL. For the same compound, the FSH ([1]; October 2003, on DHEA) was 14.7 mIUI/ml, the Estradiol periovulatory ([1]; October 2003, on DHEA) was 223 pg/mL and 224 pg/mL and the Estradiol periovulatory ([1]; September 2003, on DHEA) was 268 pg/mL. The oocytes retrieved [1, 5] was 8, the peak estradiol level [1, 5] was 1764 pg/mL and the “increase of spontaneous pregnancies” value ([2]; versus fraction of about 1% per month in women waiting for IVF) was “at least 21 fold”. The “spontaneous pregnancies out of 60 women” value ([2]; women on DHEA treatment) was 13, the live births [3] was 21.3% and the pregnancy rate [3] was 29.8%.
